What is called DC50 is the concentration giving 50% degradation.

The test deals with SMARCA2 (Homo sapiens (Human), UniProt P51531). The test is described as follows: SMARCA2 HiBiT degradation assay in HEK293T cells. To be noted: 293T HiBiT assay, 24 h; for DC50: read-out: DC50 (SM2-293T) SMARCA2 degradation potency; for Dmax: HEK-293T, read-out: Dmax % (SM2-293T) maximum SMARCA2 degradation within the concentrations tested. It is filed as cell-based. As for the experimental part: HiBiT peptide knock-in of SMARCA2 in LgBiT expressing HEK293T cells was performed by CRISPR-mediated tagging system as described Promega. The homozygous HiBiT knock-in on c-terminus SMARCA2 was confirmed by sanger sequence. SMARCA2-HiBiT knock-in Hela monoclonal cell (CS302366) and SMARCA4-HiBiT knock-in Hela monoclonal cell (CS3023226) were purchased from Promega. The heterozygous HiBiT-knock-in was confirmed by sanger sequence in both SMARCA2-HiBiT and SMARCA4-HiBiT monoclonal cells. Compounds were prepared in a low dead volume plate at 3-fold serial dilution, and then transferred 25 nL/well into a 384 well plate (Corning: #356661) by Agilent Bravo liquid dispenser. SMARCA2-HiBiT monoclonal HEK293T cells were added at 5,000/well/25 uL into the compound containing 384 well plate. After 24 h incubation, 25 uL/well of Nano-Glo HiBiT Lytic detection buffer (Promega: N3050) was added to the wells and incubate for 10 min on a shaker, centrifuged for 5 min, and then RLU was detected on a microplate reader (Envision, PerkinElmer). The RLU ratio values are normalized to percent inhibition as follows: % inhibition=((HC−LC)−(compound−LC))/(HC−LC))*100, where HC=high control=mean signal of DMSO only; LC=low control=mean signal of 100% inhibition of RLU by 1 μM PRT1001728. An 11-point dose response curve for each compound will be generated using normalized % inhibition to determine IC50 values based on the equation: Y=Bottom+((Top-Bottom)/(1+((IC50/X)^Slope))), where Y is the % inhibition in the presence of X inhibitor concentration; Top=the top plateau of the curve; Bottom=the bottom plateau of the curve; Slope=Hill coefficient; DC50=concentration of compound with 50% degradation in relation to top/high control. DC50 values were determined by using XLfit Model 205.
On the technique in general: HiBiT is a short tag that completes a luciferase, so light tracks the accessible tagged protein.

Sequence of SMARCA2 (P51531 whole entry): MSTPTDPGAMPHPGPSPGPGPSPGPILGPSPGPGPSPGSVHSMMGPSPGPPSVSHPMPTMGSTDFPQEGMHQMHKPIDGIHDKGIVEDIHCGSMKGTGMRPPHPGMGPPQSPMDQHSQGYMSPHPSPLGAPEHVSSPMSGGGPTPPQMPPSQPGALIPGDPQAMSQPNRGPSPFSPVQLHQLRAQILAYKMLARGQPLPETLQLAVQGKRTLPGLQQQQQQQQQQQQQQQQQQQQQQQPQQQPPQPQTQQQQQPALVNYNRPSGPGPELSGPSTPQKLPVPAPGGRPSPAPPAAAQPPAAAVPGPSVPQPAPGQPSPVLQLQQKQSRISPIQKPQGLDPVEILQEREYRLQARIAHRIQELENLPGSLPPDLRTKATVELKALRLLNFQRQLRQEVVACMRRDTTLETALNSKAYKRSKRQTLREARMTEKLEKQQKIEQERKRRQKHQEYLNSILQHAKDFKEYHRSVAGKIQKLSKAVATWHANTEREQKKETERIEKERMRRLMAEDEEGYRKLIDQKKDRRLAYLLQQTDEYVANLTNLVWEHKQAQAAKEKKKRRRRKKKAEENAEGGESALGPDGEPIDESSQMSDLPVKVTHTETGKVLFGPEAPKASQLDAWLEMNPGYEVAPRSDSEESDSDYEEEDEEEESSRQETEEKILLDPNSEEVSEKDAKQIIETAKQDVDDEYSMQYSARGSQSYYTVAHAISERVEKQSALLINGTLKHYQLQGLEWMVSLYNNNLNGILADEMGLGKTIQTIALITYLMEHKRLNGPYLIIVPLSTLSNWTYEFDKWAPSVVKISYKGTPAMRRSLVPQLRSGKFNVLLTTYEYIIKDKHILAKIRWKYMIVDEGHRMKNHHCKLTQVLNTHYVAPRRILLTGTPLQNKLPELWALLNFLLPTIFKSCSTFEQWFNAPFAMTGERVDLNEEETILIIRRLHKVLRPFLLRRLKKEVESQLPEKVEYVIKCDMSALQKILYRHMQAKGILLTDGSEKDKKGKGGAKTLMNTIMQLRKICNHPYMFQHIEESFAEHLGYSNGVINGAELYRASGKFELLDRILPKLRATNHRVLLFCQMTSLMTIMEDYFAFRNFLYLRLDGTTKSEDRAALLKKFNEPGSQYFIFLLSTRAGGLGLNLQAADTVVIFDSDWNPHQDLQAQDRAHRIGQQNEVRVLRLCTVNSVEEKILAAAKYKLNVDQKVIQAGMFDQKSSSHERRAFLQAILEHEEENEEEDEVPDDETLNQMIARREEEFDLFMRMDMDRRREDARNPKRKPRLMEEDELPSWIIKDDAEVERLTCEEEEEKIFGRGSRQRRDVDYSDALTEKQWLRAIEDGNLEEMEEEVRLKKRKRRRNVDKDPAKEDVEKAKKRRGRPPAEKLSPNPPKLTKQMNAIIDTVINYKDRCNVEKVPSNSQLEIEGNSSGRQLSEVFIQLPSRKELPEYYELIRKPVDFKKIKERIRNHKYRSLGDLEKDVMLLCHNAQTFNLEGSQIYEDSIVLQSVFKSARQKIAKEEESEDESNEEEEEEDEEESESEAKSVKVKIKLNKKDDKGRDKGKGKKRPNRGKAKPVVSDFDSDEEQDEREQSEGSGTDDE

On to `Cc1ncsc1-c1ccc([C@H](C)NC(=O)[C@@H]2C[C@@H](O)CN2C(=O)[C@@H](c2cc(OCCN3CCC(N4CCN5c6cc(-c7ccccc7O)nnc6NC[C@H]5C4)C3)no2)C(C)C)cc1` (single isomer, unassigned) [Example 18], for which the DC50 was less than 0.1 µM.
Consider `Cc1ncsc1-c1ccc([C@H](C)NC(=O)[C@@H]2C[C@@H](O)CN2C(=O)[C@@H](c2cc(OCCN3CCC(N4CCN5c6cc(-c7ccccc7O)nnc6NC[C@H]5C4)C3)no2)C(C)C)cc1` (single isomer, unassigned) [Example 19], for which the DC50 was less than 0.1 µM and the Dmax was more than 75%.
On to `Cc1ncsc1-c1ccc([C@H](C)NC(=O)[C@@H]2C[C@@H](O)CN2C(=O)[C@@H](c2cc(OCC(=O)N3CCC(N4CCN5c6cc(-c7ccccc7O)nnc6NC[C@H]5C4)C(C)C3)no2)C(C)C)cc1` (single isomer, unassigned) [Example 31], for which the DC50 was less than 0.1 µM and the Dmax is more than 75%.
The matching figures for `Cc1ncsc1-c1ccc([C@H](C)NC(=O)[C@@H]2C[C@@H](O)CN2C(=O)[C@@H](c2cc(OCCN3CCC(N4CCN5c6cc(-c7ccccc7O)nnc6NC[C@H]5C4)C(C)C3)no2)C(C)C)cc1` (single isomer, unassigned) [Example 56]: less than 0.1 µM and more than 75%.
The matching figures for `Cc1ncsc1-c1ccc([C@H](C)NC(=O)[C@@H]2C[C@@H](O)CN2C(=O)[C@@H](c2cc(OCCN3CCCC(CN4CCN5c6cc(-c7ccccc7O)nnc6NC[C@H]5C4)C3)no2)C(C)C)cc1` (single isomer, unassigned) [Example 85]: less than 0.1 µM and more than 75%.
The matching figures for `Cc1ncsc1-c1ccc([C@H](C)NC(=O)[C@@H]2C[C@@H](O)CN2C(=O)[C@@H](c2cc(CCCN3CCCC(CN4CCN5c6cc(-c7ccccc7O)nnc6NC[C@H]5C4)C3)no2)C(C)C)cc1` (single isomer, unassigned) [Example 88]: less than 0.1 µM and more than 75%.
In the case of `Cc1ncsc1-c1ccc([C@H](C)NC(=O)[C@@H]2C[C@@H](O)CN2C(=O)[C@@H](c2cc(CCCN3CCCC(CN4CCN5c6cc(-c7ccccc7O)nnc6NC[C@H]5C4)C3)no2)C(C)C)cc1` (single isomer, unassigned) [Example 89], the DC50 is less than 0.1 µM.
For the molecule `Cc1ncsc1-c1ccc([C@H](C)NC(=O)[C@@H]2C[C@@H](O)CN2C(=O)[C@H](NC(=O)OCCN2CCN3c4cc(-c5ccccc5O)nnc4NCC3C2)C(C)(C)C)cc1` (stereo partly drawn) [Example 7, 2-(2-(2-hydroxyphenyl)-5,6,6a,7,9,10-hexahydro-8H-pyrazino[1′,2′:4,5]pyrazino[2,3-c]pyridazin-8-yl)ethyl ((R)-1-((2S,4R)-4-hydroxy-2-(((S)-1-(4-(4-methylthiazol-5-yl)phenyl)ethyl)carbamoyl)pyrrolidin-1-yl)-3,3-dimethyl-1-oxobutan-2-yl)carbamate], the DC50 lay in the range of 0.1 to 1 µM and the Dmax was more than 75%.
The matching figures for `Cc1ncsc1-c1ccc([C@H](C)NC(=O)[C@@H]2C[C@@H](O)CN2C(=O)[C@@H](NC(=O)CCN2CCC(CN3CCN4c5cc(-c6ccccc6O)nnc5NCC4C3)CC2)C(C)(C)C)cc1` (stereo partly drawn) [Example 8, (2S,4R)-4-hydroxy-1-((2S)-2-(3-(4-((2-(2-hydroxyphenyl)-5,6,6a,7,9,10-hexahydro-8H-pyrazino[1′,2′:4,5]pyrazino[2,3-c]pyridazin-8-yl)methyl)piperidin-1-yl)propanamido)-3,3-dimethylbutanoyl)-N-((S)-1-(4-(4-methylthiazol-5-yl)phenyl)ethyl)pyrrolidine-2-carboxamide]: 0.1 to 1 µM and more than 75%.
The matching figures for `CC(=O)O[C@@H]1C[C@@H](C(=O)N[C@@H](C)c2ccc(-c3scnc3C)cc2)N(C(=O)[C@@H](c2cc(OCCN3CCN4c5cc(-c6ccccc6O)nnc5NCC4C3)no2)C(C)C)C1` (stereo partly drawn) [Example 9, (3R,5S)-1-((2R)-2-(3-(2-(2-(2-hydroxyphenyl)-5,6,6a,7,9,10-hexahydro-8H-pyrazino[1′,2′:4,5]pyrazino[2,3-c]pyridazin-8-yl)ethoxy)isoxazol-5-yl)-3-methylbutanoyl)-5-(((S)-1-(4-(4-methylthiazol-5-yl)phenyl)ethyl)carbamoyl)pyrrolidin-3-yl acetate]: less than 0.1 µM and more than 75%.
The corresponding values for `Cc1ncsc1-c1ccc([C@H](C)NC(=O)[C@@H]2C[C@@H](OC(=O)C(C)C)CN2C(=O)[C@@H](c2cc(OCCN3CCN4c5cc(-c6ccccc6O)nnc5NC[C@H]4C3)no2)C(C)C)cc1` [Example 10, (3R,5S)-1-((R)-2-(3-(2-((S)-2-(2-hydroxyphenyl)-5,6,6a,7,9,10-hexahydro-8H-pyrazino[1′,2′:4,5]pyrazino[2,3-c]pyridazin-8-yl)ethoxy)isoxazol-5-yl)-3-methylbutanoyl)-5-(((S)-1-(4-(4-methylthiazol-5-yl)phenyl)ethyl)carbamoyl)pyrrolidin-3-yl isobutyrate] are less than 0.1 µM and more than 75%.
In the case of `Cc1ncsc1-c1ccc([C@H](C)NC(=O)[C@@H]2C[C@@H](O)CN2C(=O)[C@@H](NC(=O)CN2CCC(N3CCN4c5cc(-c6ccccc6O)nnc5NC[C@H]4C3)CC2)C(C)(C)C)cc1` [Example 11, (2S,4R)-4-hydroxy-1-((S)-2-(2-(4-((S)-2-(2-hydroxyphenyl)-5,6,6a,7,9,10-hexahydro-8H-pyrazino[1′,2′:4,5]pyrazino[2,3-c]pyridazin-8-yl)piperidin-1-yl)acetamido)-3,3-dimethylbutanoyl)-N-((S)-1-(4-(4-methylthiazol-5-yl)phenyl)ethyl)pyrrolidine-2-carboxamide], the DC50 is less than 0.1 µM and the Dmax was more than 75%.
The corresponding values for `Cc1ncsc1-c1ccc([C@H](C)NC(=O)[C@@H]2C[C@@H](O)CN2C(=O)[C@@H](c2cc(OCCN3CC4CC(C3)C4N3CCN4c5cc(-c6ccccc6O)nnc5NCC4C3)no2)C(C)C)cc1` (stereo partly drawn) [Example 12, (2S,4R)-4-hydroxy-1-((2R)-2-(3-(2-(6-(2-(2-hydroxyphenyl)-5,6,6a,7,9,10-hexahydro-8H-pyrazino[1′,2′:4,5]pyrazino[2,3-c]pyridazin-8-yl)-3-azabicyclo[3.1.1]heptan-3-yl)ethoxy)isoxazol-5-yl)-3-methylbutanoyl)-N-((S)-1-(4-(4-methylthiazol-5-yl)phenyl)ethyl)pyrrolidine-2-carboxamide] are 0.1 to 1 µM and more than 75%.
The corresponding values for `Cc1ncsc1-c1ccc([C@H](C)NC(=O)[C@@H]2C[C@@H](O)CN2C(=O)[C@@H](c2cc(OCCN3CC4(CC(N5CCN6c7cc(-c8ccccc8O)nnc7NCC6C5)C4)C3)no2)C(C)C)cc1` (stereo partly drawn) [Example 13, (2S,4R)-4-hydroxy-1-((2R)-2-(3-(2-(6-(2-(2-hydroxyphenyl)-5,6,6a,7,9,10-hexahydro-8H-pyrazino[1′,2′:4,5]pyrazino[2,3-c]pyridazin-8-yl)-2-azaspiro[3.3]heptan-2-yl)ethoxy)isoxazol-5-yl)-3-methylbutanoyl)-N-((S)-1-(4-(4-methylthiazol-5-yl)phenyl)ethyl)pyrrolidine-2-carboxamide] are less than 0.1 µM and more than 75%.
The corresponding values for `Cc1ncsc1-c1ccc([C@H](C)NC(=O)[C@@H]2C[C@@H](O)CN2C(=O)[C@@H](c2cc(OCCN3CCC(N4CCN5c6cc(-c7ccccc7O)nnc6NC[C@H]5C4)C(F)C3)no2)C(C)C)cc1` (stereo partly drawn) [Example 14, (2S,4R)-1-((2R)-2-(3-(2-(3-fluoro-4-((S)-2-(2-hydroxyphenyl)-5,6,6a,7,9,10-hexahydro-8H-pyrazino[1′,2′:4,5]pyrazino[2,3-c]pyridazin-8-yl)piperidin-1-yl)ethoxy)isoxazol-5-yl)-3-methylbutanoyl)-4-hydroxy-N-((S)-1-(4-(4-methylthiazol-5-yl)phenyl)ethyl)pyrrolidine-2-carboxamide] are less than 0.1 µM and more than 75%.
Turning to `Cc1ncsc1-c1ccc([C@H](C)NC(=O)[C@@H]2C[C@@H](O)CN2C(=O)[C@@H](c2cc(OCCN3CCC(CN4CCN5c6cc(-c7ccccc7O)nnc6NC[C@H]5C4)C3)no2)C(C)C)cc1` (stereo partly drawn) [Example 15, (2S,4R)-4-hydroxy-1-((2R)-2-(3-(2-(3-(((S)-2-(2-hydroxyphenyl)-5,6,6a,7,9,10-hexahydro-8H-pyrazino[1′,2′:4,5]pyrazino[2,3-c]pyridazin-8-yl)methyl)pyrrolidin-1-yl)ethoxy)isoxazol-5-yl)-3-methylbutanoyl)-N-((S)-1-(4-(4-methylthiazol-5-yl)phenyl)ethyl)pyrrolidine-2-carboxamide], the DC50 is less than 0.1 µM and the Dmax is more than 75%.
